The values below come from patent US20260115185A1, “QUINOLINE DERIVATIVES WHICH ACT AS KAPPA-OPIOID RECEPTOR ANTAGONISTS” (The Scripps Research Institute, priority 2023, published 2026).

Experiment [1] concerns the target T1, kappa opioid receptor (KOR) (Homo sapiens, UniProt P41145).
T1 construct: host or cells: U2OS (Tango OPRK1-bla U2OS)
Description: OPRKappa 1 Tango B-Arrestin Assay, antagonist mode (Tango OPRK1-bla U2OS cells, U50488 EC80 challenge). The note with it: for Selectivity (MOR/KOR): Kappa selectivity, MOR IC50 / KOR IC50; for IC50: antagonist mode, Tango OPRK1-bla U2OS cells, 6 nM U50488 challenge. It counts as cell-based. In short, it runs like this: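 Tango OPRK1-bla U2OS cells, β-arrestin recruitment read as β-lactamase FRET (CCF4-AM, 460/590 nm emission). Compounds, 10-point 1:3 series from nominal 10 µM in quadruplicate, preincubated 30 min at 37 °C, then challenged with U50488 at 6 nM final (EC80) for 4 h; percent inhibition from median ratio.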

A further experiment concerns the target T2, mu opioid receptor (MOR) (Homo sapiens, UniProt P35372).
T2 construct: host or cells: U2OS (Discover X OPRMu1-U2OS, PathHunter)
Description: OPRMu1 Discover X β-arrestin Assay, antagonist mode (U2OS cells, DAMGO EC80 challenge). It is filed as cell-based. In short, it runs like this: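 PathHunter U2OS cells with β-gal fragment-complementation readout for β-arrestin recruitment to OPRMu1. Cells were preincubated with compound (10-point, 1:3 series from nominal 10 micromolar) for 30 min at 37 °C, then challenged with 303 nM DAMGO (EC80) for 3 h. Luminescence gave percent inhibition.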

T1 sequence (P41145 whole entry): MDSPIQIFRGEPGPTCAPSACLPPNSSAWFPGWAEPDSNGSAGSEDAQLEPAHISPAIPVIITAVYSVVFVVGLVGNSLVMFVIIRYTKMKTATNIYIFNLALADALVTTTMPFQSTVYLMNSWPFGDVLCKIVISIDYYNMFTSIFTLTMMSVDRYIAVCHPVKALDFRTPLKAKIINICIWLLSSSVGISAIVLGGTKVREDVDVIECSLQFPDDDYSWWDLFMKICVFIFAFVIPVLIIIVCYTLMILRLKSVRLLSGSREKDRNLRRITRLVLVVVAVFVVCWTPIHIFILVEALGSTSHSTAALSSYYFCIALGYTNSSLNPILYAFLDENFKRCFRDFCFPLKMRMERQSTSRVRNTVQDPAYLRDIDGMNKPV
T2 sequence (P35372 whole entry): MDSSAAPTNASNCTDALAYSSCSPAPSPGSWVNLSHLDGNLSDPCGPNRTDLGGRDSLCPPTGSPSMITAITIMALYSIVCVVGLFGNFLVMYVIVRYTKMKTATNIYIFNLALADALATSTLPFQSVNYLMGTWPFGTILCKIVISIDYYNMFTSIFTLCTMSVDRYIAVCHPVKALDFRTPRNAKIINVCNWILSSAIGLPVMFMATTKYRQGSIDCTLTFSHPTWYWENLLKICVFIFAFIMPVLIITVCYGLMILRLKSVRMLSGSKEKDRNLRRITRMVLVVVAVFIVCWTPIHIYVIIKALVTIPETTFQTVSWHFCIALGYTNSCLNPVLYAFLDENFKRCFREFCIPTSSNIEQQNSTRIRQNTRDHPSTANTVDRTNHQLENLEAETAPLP

`CCc1cc(F)c2nc(N3CCN(CC4CCOCC4)[C@H](C)C3)c(-c3nc(C)no3)c(C)c2c1` [Compound 39, (R)-5-(6-ethyl-8-fluoro-4-methyl-2-(3-methyl-4-((tetrahydro-2H-pyran-4-yl)methyl)piperazin-1-yl)quinolin-3-yl)-3-methyl-1,2,4-oxadiazole]: the “Selectivity (MOR/KOR)” value in experiment [1] is “++ (between 10- and 100-fold selectivity)”. Further, the IC50 in experiment [1] is at least 100 nM; against mu opioid receptor (MOR), above 1000 nM.
As to `CCc1cc(F)c2nc(N3CCN(C4CC5(COC5)C4)C[C@H]3C)c(-c3nc(C)no3)c(C)c2c1` [Compound 41], in experiment [1], the “Selectivity (MOR/KOR)” value is “+++ (between 100- to 1000-fold selective)” and the IC50 lay within 10 to 100 nM. Besides, on mu opioid receptor (MOR), the IC50 is above 1000 nM.
Turning to `CCc1cc(F)c2nc(N3CCN(C4CC5(CCOCC5)C4)C[C@H]3C)c(-c3nc(C)no3)c(C)c2c1` [Compound 42], the “Selectivity (MOR/KOR)” value in experiment [1] is “+++ (between 100- to 1000-fold selective)”. Also, the figures for the IC50 (in experiment [1]; at mu opioid receptor (MOR)) were 10 to 100 nM and above 1000 nM, respectively.
`CCc1cc(F)c2nc(N3CCN(C(=O)CCN(C)C)C[C@H]3C)c(-c3nc(C)no3)c(C)c2c1` [Compound 43]: the “Selectivity (MOR/KOR)” value in experiment [1] is “++ (between 10- and 100-fold selectivity)”. For the same compound, the half-inhibitory concentration (IC50) was 10 to 100 nM in experiment [1] and above 1000 nM against mu opioid receptor (MOR).
As for `CCc1cc(F)c2nc(N3CCN(C(=O)CN(C)C)C[C@H]3C)c(-c3nc(C)no3)c(C)c2c1` [Compound 44], in experiment [1], the “Selectivity (MOR/KOR)” value is listed as “+++ (between 100- to 1000-fold selective)”. The IC50 was 10 to 100 nM in experiment [1] and above 1000 nM at mu opioid receptor (MOR).
For `CCc1cc(F)c2nc(N3CCN(C(=O)C4CN(C)C4)C[C@H]3C)c(-c3nc(C)no3)c(C)c2c1` [Compound 45], in experiment [1], the “Selectivity (MOR/KOR)” value is “++ (between 10- and 100-fold selectivity)”; the IC50 fell in the range of 10 to 100 nM. On mu opioid receptor (MOR), this compound had an IC50 above 1000 nM.
In the case of `CCc1cc(F)c2nc(N3CCN(C(=O)[C@@H]4CCCN4C)C[C@H]3C)c(-c3nc(C)no3)c(C)c2c1` [Compound 46], in experiment [1], the “Selectivity (MOR/KOR)” value is “+++ (between 100- to 1000-fold selective)” and the IC50 fell in the range of 10 to 100 nM. In addition, the IC50 on mu opioid receptor (MOR) is above 1000 nM.
The like results for `CCc1cc(F)c2nc(N3CCN(C(=O)CN4CCCC4)C[C@H]3C)c(-c3nc(C)no3)c(C)c2c1` [Compound 47, (R)-1-(4-(6-ethyl-8-fluoro-4-methyl-3-(3-methyl-1,2,4-oxadiazol-5-yl)quinolin-2-yl)-3-methylpiperazin-1-yl)-2-(pyrrolidin-1-yl)ethan-1-one] were, in that order, “+++ (between 100- to 1000-fold selective)”, 1 to 10 nM and 100 to 1000 nM.
The like results for `CCc1cc(F)c2nc(N3CCN(/C(=N/C#N)NC[C@H](Cc4ccc(O)cc4)N(C)C)C[C@H]3C)c(-c3nc(C)no3)c(C)c2c1` [Compound 48] were, in that order, “+ (less than 10-fold selectivity)”, 10 to 100 nM and 100 to 1000 nM.
The like results for `CCc1cc(F)c2nc(N3CCN(CC4CCOCC4)C[C@H]3C)c(-c3nc(C)no3)c(C)c2c1` [Compound 49, (R)-5-(6-ethyl-8-fluoro-4-methyl-2-(2-methyl-4-((tetrahydro-2H-pyran-4-yl)methyl)piperazin-1-yl)quinolin-3-yl)-3-methyl-1,2,4-oxadiazole] were, in that order, “+++ (between 100- to 1000-fold selective)”, 10 to 100 nM and above 1000 nM.
With `Cc1noc(-c2c(N3CCN(CC4CCOCC4)C[C@H]3C)nc3c(F)cc(Cl)cc3c2C)n1` [Compound 50, (R)-5-(6-chloro-8-fluoro-4-methyl-2-(2-methyl-4-((tetrahydro-2H-pyran-4-yl)methyl)piperazin-1-yl)quinolin-3-yl)-3-methyl-1,2,4-oxadiazole], the “Selectivity (MOR/KOR)” value in experiment [1] was “++ (between 10- and 100-fold selectivity)”. Besides, the IC50 is at least 100 nM in experiment [1] and above 1000 nM at mu opioid receptor (MOR).
For the compound `Cc1cc(Cl)c2nc(N3CCN(CC4CCOCC4)C[C@H]3C)c(-c3nc(C)no3)c(C)c2c1` [Compound 51, (R)-5-(8-chloro-4,6-dimethyl-2-(2-methyl-4-((tetrahydro-2H-pyran-4-yl)methyl)piperazin-1-yl)quinolin-3-yl)-3-methyl-1,2,4-oxadiazole], the “Selectivity (MOR/KOR)” value in experiment [1] is reported as “+++ (between 100- to 1000-fold selective)”. For the same compound, the IC50 in experiment [1] is 1 to 10 nM; against mu opioid receptor (MOR) it was 100 to 1000 nM.
Take `CCc1cc(F)c2nc(N3CCN(C(=O)[C@H](Cc4ccccc4)N(C)C)C[C@H]3C)c(-c3nc(C)no3)c(C)c2c1` [Compound 52]: the “Selectivity (MOR/KOR)” value in experiment [1] is “++ (between 10- and 100-fold selectivity)”. The IC50 was at least 100 nM in experiment [1] and above 1000 nM at mu opioid receptor (MOR).
Regarding `CCc1cc(F)c2nc(N3CCN(/C(=N/C#N)NC4CC(F)(F)C4)C[C@H]3C)c(-c3nc(C)no3)c(C)c2c1` [Compound 54], in experiment [1], the “Selectivity (MOR/KOR)” value was “+++ (between 100- to 1000-fold selective)” and the IC50 was below 1 nM. The same compound came in with an IC50 against mu opioid receptor (MOR) of 10 to 100 nM.
On to `CCc1cc(F)c2nc(N3CCN(/C(=N/C#N)NC)C[C@H]3C)c(-c3nc(C)no3)c(C)c2c1` [Compound 55], for which, in experiment [1], the “Selectivity (MOR/KOR)” value is “++ (between 10- and 100-fold selectivity)”; the IC50 is 10 to 100 nM. At mu opioid receptor (MOR), this compound came in with an IC50 above 1000 nM.
On to `CCc1cc(F)c2nc(N3CCN(/C(=N\C#N)NC4CCOCC4)C[C@H]3C)c(-c3nc(C)no3)c(C)c2c1` [Compound 56], for which, in experiment [1], the “Selectivity (MOR/KOR)” value was “++ (between 10- and 100-fold selectivity)”; the IC50 is 10 to 100 nM. On mu opioid receptor (MOR), this compound returned an IC50 of 100 to 1000 nM.
`CCc1cc(F)c2nc(N3CCN(C[C@@H]4CCOC4)C[C@H]3C)c(-c3ccn(C)n3)c(C)c2c1` [Compound 57]: in experiment [1], the “Selectivity (MOR/KOR)” value is “++ (between 10- and 100-fold selectivity)”; the IC50 was at least 100 nM. This compound had an IC50 against mu opioid receptor (MOR) above 1000 nM.
`CCc1cc(F)c2nc(N3CCN(C[C@H]4CCOC4)C[C@H]3C)c(-c3ccn(C)n3)c(C)c2c1` [Compound 58]: in experiment [1], the “Selectivity (MOR/KOR)” value is reported as “+++ (between 100- to 1000-fold selective)”. In addition, the IC50 is 10 to 100 nM in experiment [1] and above 1000 nM against mu opioid receptor (MOR).
The like results for `CCc1cc(F)c2nc(N3CCN(CC4CC(F)(F)C4)C[C@H]3C)c(-c3nc(C)no3)c(C)c2c1` [Compound 59, (R)-5-(2-(4-((3,3-difluorocyclobutyl)methyl)-2-methylpiperazin-1-yl)-6-ethyl-8-fluoro-4-methylquinolin-3-yl)-3-methyl-1,2,4-oxadiazole] were, in that order, “+++ (between 100- to 1000-fold selective)”, 10 to 100 nM and above 1000 nM.
Turning to `CCc1cc(F)c2nc(N3CCN(CC4CCOCC4)C4CC43)c(-c3nc(C)no3)c(C)c2c1` (centres unmarked) [Compound 60], the IC50 in experiment [1] is at least 100 nM; against mu opioid receptor (MOR), above 1000 nM.
For the compound `CCc1cc(-c2ccnn2C)c2nc(N3CCN(CC4CC(F)(F)C4)C[C@H]3C)c(-c3ccn(C)n3)c(C)c2c1` [Compound 61], in experiment [1], the “Selectivity (MOR/KOR)” value was “++ (between 10- and 100-fold selectivity)”; the IC50 is at least 100 nM. The IC50 against mu opioid receptor (MOR) was above 1000 nM.
`CCc1cc(-c2ccnn2C)c2nc(N3CCN(CC4CCOCC4)C[C@H]3C)c(-c3ccn(C)n3)c(C)c2c1` [Compound 62]: in experiment [1], the “Selectivity (MOR/KOR)” value is on record as “+++ (between 100- to 1000-fold selective)” and the IC50 fell in the range of 1 to 10 nM. The compound further returned a concentration for half-maximal inhibition (IC50) at mu opioid receptor (MOR) of 100 to 1000 nM.
The like results for `CCc1cc(F)c2nc(N3CCN(CC4CCOCC4)C[C@H]3C)c(-c3cc(C)no3)c(C)c2c1` [Compound 63, (R)-5-(6-ethyl-8-fluoro-4-methyl-2-(2-methyl-4-((tetrahydro-2H-pyran-4-yl)methyl)piperazin-1-yl)quinolin-3-yl)-3-methylisoxazole] were, in that order, “+++ (between 100- to 1000-fold selective)”, 10 to 100 nM and above 1000 nM.
With `CCc1cc(F)c2nc(N3CCNC4CC43)c(-c3nc(C)no3)c(C)c2c1` (centres unmarked) [Compound 64], in experiment [1], the “Selectivity (MOR/KOR)” value is “++ (between 10- and 100-fold selectivity)”; the IC50 was at least 100 nM. The same compound gave a 50% inhibitory concentration (IC50) on mu opioid receptor (MOR) above 1000 nM.
For `CCc1cc(F)c2nc(N3CCC(N[C@@H]4CCOC4)CC3)c(-c3cc(C)n(C)n3)c(C)c2c1` [Compound 66], the “Selectivity (MOR/KOR)” value in experiment [1] was “+++ (between 100- to 1000-fold selective)”. In addition, the values for the IC50 (in experiment [1]; at mu opioid receptor (MOR)) were 1 to 10 nM and 100 to 1000 nM, respectively.
Regarding `CCc1cc(F)c2nc(N3CCC(N[C@H]4CCCC(F)(F)C4)CC3)c(-c3cc(C)n(C)n3)c(C)c2c1` [Compound 67], in experiment [1], the “Selectivity (MOR/KOR)” value is “++ (between 10- and 100-fold selectivity)”. Also, the IC50 in experiment [1] fell in the range of 1 to 10 nM; at mu opioid receptor (MOR), 10 to 100 nM.
For `CCc1cc(F)c2nc(N3CC[C@H](NC4CCOCC4)[C@H](F)C3)c(-c3ccn(C)n3)c(C)c2c1F` [Compound 69], the “Selectivity (MOR/KOR)” value in experiment [1] is on record as “+++ (between 100- to 1000-fold selective)”. For the same compound, the IC50 is 10 to 100 nM in experiment [1] and above 1000 nM against mu opioid receptor (MOR).
As for `CCc1cc(F)c2nc(N3CC[C@H](NC4CCOCC4)[C@H](F)C3)c(-c3nn(C)cc3F)c(C)c2c1F` [Compound 70], in experiment [1], the “Selectivity (MOR/KOR)” value was “+++ (between 100- to 1000-fold selective)” and the IC50 was in the range of 1 to 10 nM. For the same compound, the IC50 on mu opioid receptor (MOR) is above 1000 nM.
On to `CCc1cc(F)c2nc(N3CCC(N[C@@H]4COC[C@@H]4F)CC3)c(-c3ccn(C)n3)c(C)c2c1` [Compound 71, 1-(6-ethyl-8-fluoro-4-methyl-3-(1-methyl-1H-pyrazol-3-yl)quinolin-2-yl)-N-((3R,4R)-4-fluorotetrahydrofuran-3-yl)piperidin-4-amine], for which the “Selectivity (MOR/KOR)” value in experiment [1] is recorded as “+++ (between 100- to 1000-fold selective)”. For the same compound, the IC50 in experiment [1] is 1 to 10 nM; on mu opioid receptor (MOR), above 1000 nM.
